Measured values taken from PubChem BioAssay (NCI).
“And” between values parts separate entries of the source, which are not always exact repeats. Identical values can stand only once.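 48-hour exposure; five concentrations; linearly interpolated endpoints. Abbreviation: GI50, concentration required for 50% inhibition of growth. TGI is the concentration that stops growth completely.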

Columns and labels:
Experiment in all cases: NCI-60 cell line screen, 48 h
[1] = tested on: NCI-H460 lung
[2] = tested on: HT29 colon
[3] = tested on: HOP-92 NSCLC
[4] = tested on: MDA-MB-231 breast
[5] = tested on: SNB-19 CNS
[6] = tested on: UACC-62 melanoma
[7] = tested on: K-562 leukemia
[8] = tested on: SF-295 CNS
[9] = tested on: MDA-MB-435
[10] = tested on: CAKI-1 renal

SMILES | GI50 [1] [nM] | TGI [1] | GI50 [2] | TGI [2] [µM] | GI50 [3] | TGI [3] [µM] | GI50 [4] | TGI [4] | GI50 [5] | TGI [5] | GI50 [6] [nM] | TGI [6] [µM] | GI50 [7] [nM] | TGI [7] [µM] | GI50 [8] [nM] | TGI [8] [µM] | GI50 [9] [nM] | TGI [9] [µM] | TGI [10] | GI50 [10] [µM]
Clc1ccc2c(NCCNc3nc(N4CCCC4)nc4ccccc34)ccnc2c1 | 220 | 0.506 µM | 0.0943 µM | 1.39 | 1230 nM | 2.66 | 811 nM | 2.24 µM | 1.6 µM | 5.62 µM | 1800 | 3.5 | 118 | 3.29 | 1470 | 2.88 | 1600 | 3.11 | – | –
C#Cc1cc(CN(CC(=O)OC(C)(C)C)CC(=O)OC(C)(C)C)nc(CN(CC(=O)OC(C)(C)C)CC(=O)OC(C)(C)C)c1 | – | > 100 µM | – | > 100 | – | – | – | – | – | 15.1 µM | – | 36.5 | – | 26.6 | – | > 100 | – | – | 33.1 µM | –
Cn1nc2ccccc2cc1=O | – | > 100 µM | – | > 100 | – | > 100 | – | – | – | > 100 µM | – | > 100 | – | > 100 | – | > 100 | – | – | > 100 µM | –
O=[N+]([O-])c1cc2c(c([N+](=O)[O-])c1)Nc1ccccc1O2 | 4620 | 83.1 µM | 6.41 µM | 66.8 | – | – | 6380 nM | 30.7 µM | 6.33 µM | > 100 µM | 5110 | > 100 | 4640 | > 100 | 4700 | 29.1 | 8000 | > 100 | 26.9 µM | 5.36
CC(CN)[C@@H]1CC[C@]2(CO)CC[C@]3(C)[C@H](CC[C@@H]4[C@@]5(C)CCC(N)C(C)(C)[C@@H]5CC[C@]43C)[C@@H]12 (some centres undefined) | 1840 | 3.49 µM | 1.57 µM | 3.03 | 1450 nM | 3.07 | 1500 nM | 3.05 µM | 1.79 µM | 3.29 µM | 1920 | 3.64 | – | – | 1740 | 3.41 | 1730 | 3.26 | 3.12 µM | 1.63
Nc1nc(=Nc2ccccc2)ss1 | – | > 100 µM | – | > 100 | – | > 100 | – | – | – | > 100 µM | – | > 100 | – | > 100 | – | > 100 | – | – | > 100 µM | –
c1ccc2c3c(ccc2c1)-c1c(ccc2c(NCCCCN4CCCCC4)cccc12)C3 | 2080 | 6.74 µM | – | – | 2460 nM | 7.73 | 599 nM | 2.21 µM | 22.2 µM | 63.5 µM | 1790 | 3.24 | 1670 | 5.85 | 1780 | 3.35 | 1910 | 3.31 | – | –
CCOC(=O)NC1CC2CCC1(OC)C=C2C (centres undefined) | – | > 100 µM | – | > 100 | – | > 100 | – | – | – | > 100 µM | – | > 100 | – | > 100 | – | > 100 | – | – | > 100 µM | –
CCCCCCCCCCCCC(CCCCCCCCCCCC)OP(=O)(O)O | – | > 100 µM | – | > 100 | – | > 100 | – | – | – | > 100 µM | – | > 100 | – | > 100 | – | > 100 | – | – | > 100 µM | –
Fc1cccc(-c2[nH]nc3nc(Nc4cccnc4)sc23)c1 | 2380 | > 100 µM | – | – | > 100000 nM | > 100 | 35200 nM | > 100 µM | – | – | > 100000 | > 100 | 421 | > 100 | 3820 | > 100 | 280 | > 100 | > 100 µM | 3.72
CCCCCCCCCCCCCCCCCC[N+](C)(C)Cc1ccc(C[N+](C)(C)CCCCCCCCCCCCCCCCCC)cc1 | – | > 100 µM | – | 38.6 | – | 24.8 | – | – | – | 76.1 µM | – | 47.6 | – | > 100 | – | 24.2 | – | – | 47.7 µM | –
Nc1ncnc2c1ncn2C1OC(COC2C(CO)OC(OC(C(=O)O)C(O)C(OP(=O)(O)O)C(O)C(=O)O)C(O)C2O)C(O)C1O (centres undefined) | – | > 100 µM | – | > 100 | – | – | – | > 100 µM | – | > 100 µM | – | – | – | > 100 | – | > 100 | – | > 100 | > 100 µM | –
COC1CC(OC)C(O)C(CO)O1 (centres undefined) | – | > 100 µM | – | > 100 | – | – | – | – | – | – | – | > 100 | – | > 100 | – | > 100 | – | – | – | –
COc1ccccc1NC(=O)C(CC(C(=O)Nc1ccccc1OC)/C(C)=N/NC(=O)c1ccccc1O)/C(C)=N/NC(=O)c1ccccc1O (centres undefined) | – | > 100 µM | – | > 100 | – | > 100 | – | – | – | > 100 µM | – | – | – | > 100 | – | > 100 | – | – | > 100 µM | –
COC(=O)C1=C(C)N(NC(N)=O)C(C)(O)C12CCOC2=O (centres undefined) | – | > 100 µM | – | > 100 | – | > 100 | – | – | – | > 100 µM | – | – | – | > 100 | – | > 100 | – | – | > 100 µM | –
Cc1ccc(N2C(=O)C(Cl)=C(Cl)C2=O)cc1 | – | > 100 µM | – | 33.3 | – | 32.4 | – | – | – | > 100 µM | – | – | – | 87.4 | – | > 100 | – | – | 31.4 µM | –
FC(F)(F)c1nc(-c2ccccc2)oc1Sc1oc(-c2ccccc2)nc1C(F)(F)F | – | > 100 µM | – | > 100 | – | 94.6 | – | – | – | > 100 µM | – | > 100 | – | > 100 | – | > 100 | – | – | 65.7 µM | –
Cc1ccccc1NC(=O)c1ccc([N+](=O)[O-])cc1 | – | > 100 µM | – | > 100 | – | > 100 | – | – | – | > 100 µM | – | > 100 | – | > 100 | – | > 100 | – | – | > 100 µM | –
Cn1sc2ccccc2c1=S | – | 32.3 µM | – | 23.3 | – | 36.1 | – | – | – | 31.4 µM | – | 18.1 | – | 26.1 | – | 25.4 | – | – | 16.9 µM | –
COc1ccc(C2c3c(-c4ccccc4)nn(-c4ccccc4)c3Oc3ncn4nc(CC#N)nc4c32)cc1OC (centres undefined) | – | > 100 µM and 46.7 µM | 99.9 µM and 14.8 µM | > 100 | 17600 nM and 1960 nM | – | 9030 nM and 1770 nM | 22.8 µM and 4.68 µM | 23.6 µM and 4.62 µM | 73.7 µM and 33.7 µM | – | – | – | > 100 | – | > 100 | > 100000 | > 100 | > 100 µM and 13.8 µM | –
